From patent US5780441A, “Sphingoglycolipid compounds and therapeutic uses thereof” (Kirin Beer Kabushiki Kaisha, priority 1993, dated 1998)

Key:
[1] = Solubility in water in aqueous Polysorbate 20 solutions; assay type: physicochemical; details: vs Compound b
Method: Compounds a and b comprising a monosaccharide as a constituent sugar which are disclosed in WO 93/05055 were synthesized as above. A 1 mg of each of the present compounds 4, 31 and 33 and Compound a and b was dissolved in 1 ml of an aqueous Polysorbate 20 solution in a variety of concentrations in order to observe visually the property.

B16 mouse melanoma cells = assay: Tumor growth inhibition in mice subcutaneously inoculated with B16 mouse melanoma cells; assay type: in vivo, mouse (BDF1 female); details: 0.1 mg/kg i.v. days 1, 5, 9; maximum during 20 days
Summary of the method: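 Female BDF1 mice (6 weeks, n=6/group) bearing subcutaneous B16 melanoma. Tumor volume [(length×width×height)/2] measured on days 8, 12, 16 and 20 after implantation; growth inhibition rate computed from treated vs control tumor volumes.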

[2] = tested on: mixed lymphocyte culture reaction (spleen cells of C57BL/6 and BALB/C mice); assay: Mixed lymphocyte culture reaction (MLR); assay type: cell-based, mouse (C57BL/6 stimulator, BALB/C responder); details: 42 hours; for MLR activating rate (%): 2520 min
Summary of the method: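 Mouse one-way MLR: mitomycin C-treated (50 μg/ml, 30 min) C57BL/6 spleen cells stimulated BALB/C responder spleen cells, 2×10^6 cells/ml each, cultured 42 h at 37 °C with sample. ³H-thymidine (0.5 μCi/well) incorporation over a further 8 h gave MLR activating rate as % of vehicle uptake.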

mouse bone marrow cells = assay: In vitro mouse bone marrow cell-proliferation-promoting effect (3H-TdR uptake); assay type: cell-based, mouse (BDF1 female); details: 4 days; for Uptake of 3H-TdR (% of control), bone marrow cells: 5760 min
Summary of the method: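 Femoral bone marrow monocytes from 6-week female BDF1 mice (Lympholite M fraction, 1×10^6 cells/ml in 10% FCS RPMI 1640) cultured with sample for 4 days at 37 °C, 5% CO2. 3H-TdR (0.5 μCi/well) added for final 6 h; uptake ratio versus vehicle reported as activation rate.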

[3] = tested on: P388 mouse leukemia cells; assay: Life-span-prolonging (anti-tumor) effect on mice subcutaneously inoculated with P388 mouse leukemia cells; assay type: in vivo, mouse (CDF1 female); details: for Survival days ave. ± s. d.: all marked ** (p < 0.01)
Summary of the method: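 CDF1 female mice (6 weeks), 5 per group, inoculated subcutaneously with P388 leukemia cells; life-span prolongation assessed. Lentinan and picibanil given intravenously on days 1, 3, 5, 7 and 9 after implantation; sizofilan given subcutaneously on days 1 through 9. Statistics by Mann-Whitney test.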

mouse splenic lymphocyte = assay: In vitro mouse splenic lymphocyte-proliferation-stimulating effect (3H-TdR uptake); assay type: cell-based, mouse (BDF1 female); details: 2 days; for Uptake of 3H-TdR (% of control), splenic lymphocytes: 2880 min
Summary of the method: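 Spleen cells from 6-week-old female BDF1 mice, 2×10^6 cells/ml in 10% FCS RPMI 1640, cultured with vehicle or sample 2 days at 37° C, 5% CO2. ^3H-TdR (0.5 μCi/well) uptake over 6 h by scintillation counting, expressed as % of vehicle.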

lethally irradiated mice = assay: Radioprotective effect: life-span prolongation of lethally irradiated mice; assay type: in vivo, mouse (BDF1 female); details: 0.1 mg/kg i.v. days 0, 4, 8, 9 Gy X-ray, groups of 10, 0.1 mg/kg
Summary of the method: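 Female BDF1 mice (6 weeks, groups of 10) given 9 Gy X-ray on day 0, then compound 0.1 mg/kg intravenously by tail vein on days 0, 4 and 8. Survival followed for 40 days.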

[4] = tested on: mouse splenic lymphocytes; assay: Influence of Polysorbate on immunostimulating effect (3H-TdR uptake into mouse splenic lymphocytes); assay type: cell-based, mouse (BDF1 female); details: for 3H-TdR uptake: mean of 3 wells
Method: Experiment was performed with BDF1 female mice (6 weeks old) purchased from NIPPON SLC K.K. Spleens were removed from mice, and spleen cells were brayed with slide glasses and hemolized with NH4 Cl. 2×10^6cells/ml of the spleen cells which had been hemolized were suspended in 10% FCS RPMI 1640. The cell suspension (100 μl/well) and a vehicle or sample (10 μl/well) which was prepared so as to have a final level shown in Table 3 were added into wells of a round-bottomed 96 well plate, and cultured under the condition of 5% CO2 at 37° C. for 2 days. 0.5 μCi/well of ^3 H-thymidine (^3 H-TdR) was added. After 6 hours, the cells were harvested, and the amount of ^3 H-TdR uptaken into nucleus was measured by a liquid scintillation counter. The ratio (%) of the uptake of ^3 H-TdR in the sample group to that in the vehicle group was calculated and used as the in vitro mouse splenic lymphocyte-proliferation-stimulating rate.
A sample of a solution of 1 mg of Compound 33 prepared in Experimental Example 8 in 1 ml of 10% or 0.1% Polysorbate 20, a sample of a solution of 1 mg of Compound b in 1 ml of 10% Polysorbate 20, or 10% and 0.1% Polysorbate 20, were prepared by subjecting to aseptic filtration followed by sequential 10 time dilution with PBS as shown in Table 5 in order to carry out the experiment described in Experimental Example 6.
In this connection, 1 mg of Compound b was insoluble in 0.1% Polysorbate, and thus no experiment was conducted.

[5] = 0.1 mg/kg i.v. on days 1, 5 and 9

CCCCCCCCCCCCCCCCCCCCCC[C@@H](O)C(=O)N[C@@H](CO[C@H]1O[C@H](CO)[C@H](O)[C@H](O[C@H]2O[C@H](CO)[C@H](O)[C@H](O)[C@H]2NC(C)=O)[C@H]1O[C@H]1O[C@H](CO)[C@@H](O)[C@H](O)[C@H]1O)[C@H](O)[C@H](O)CCCCCCCCCCCCCC [Compound 4, O-(N-acetyl-2-amino-2-deoxy-α-D-galactopyranosyl)-(1→3)-O-[α-D-glucopyranosyl-(1→2)]-O-α-D-galactopyranosyl-(1→1)-(2S,3S,4R)-2-amino-N-[(R)-2-hydroxytetracosanoyl]-1,3,4-octadecanetriol]
amount of Polysorbate 20 required for dissolving, relative to that required for Compound b [1]: 1/100 | Maximum tumor growth inhibiting rate, TGIR (%) (B16 mouse melanoma cells): 84.0% | MLR activating rate (%) ([2]; 1 × 10^0 μg/ml): 209% | MLR activating rate (%) ([2]; 1 × 10^-1 μg/ml): 163% | Uptake of 3H-TdR (% of control), bone marrow cells (mouse bone marrow cells; 10^-1 μg/ml): 512 % of control | Uptake of 3H-TdR (% of control), bone marrow cells (mouse bone marrow cells; 10^-2 μg/ml): 163 % of control | Survival days ave. ± s. d. [3, 5]: 15.2 ± 0.5 days | T/C (%) ([3]; 0.1 mg/kg i.v. on days 1, 5 and 9, survival vs vehicle): 119% | Uptake of 3H-TdR (% of control), splenic lymphocytes (mouse splenic lymphocyte; 10^0 μg/ml): 792 % of control | Uptake of 3H-TdR (% of control), splenic lymphocytes (mouse splenic lymphocyte; 10^-1 μg/ml): 692 % of control | Uptake of 3H-TdR (% of control), splenic lymphocytes (mouse splenic lymphocyte; 10^-2 μg/ml): 395 % of control | Uptake of 3H-TdR (% of control), splenic lymphocytes (mouse splenic lymphocyte; 10^-3 μg/ml): 325 % of control | Number of surviving mice (lethally irradiated mice; day 10): 10 mice | Number of surviving mice (lethally irradiated mice; day 15): 8 mice | Number of surviving mice (lethally irradiated mice; day 20): 8 mice | Number of surviving mice (lethally irradiated mice; day 25): 6 mice | Number of surviving mice (lethally irradiated mice; day 30): 5 mice | Number of surviving mice (lethally irradiated mice; day 35): 5 mice | Number of surviving mice (lethally irradiated mice; day 40): 5 mice

CCCCCCCCCCCCCCCCCCCCCCCCCC(=O)N[C@@H](CO[C@H]1O[C@H](CO[C@H]2O[C@H](CO)[C@H](O)[C@H](O)[C@H]2O)[C@H](O)[C@H](O)[C@H]1O)[C@H](O)[C@H](O)CCCCCCCCCCCCCC [Compound 33, O-α-D-galactopyranosyl-(1→6)-O-α-D-galactopyranosyl-(1→1)-(2S,3S,4R)-2-amino-N-hexacosanoyl-1,3,4-octadecanetriol]
amount of Polysorbate 20 required for dissolving, relative to that required for Compound b [1]: 1/100 | 3H-TdR-uptake-stimulating effect, in words ([4]; 10 μg/ml (0.001% Polysorbate 20)): intensive ^3 H-TdR-uptake-stimulating effect | 3H-TdR uptake in words, compound with Polysorbate 20 ([4]; 10 μg/ml (0.1% Polysorbate 20) and 1 μg/ml (0.01%) vs 0.1 μg/ml (0.001%)): suppressed | 3H-TdR uptake ([4]; 0.1% PS20 stock (compound 1 mg/ml), dilution 10^2): 24213 cpm | 3H-TdR uptake ([4]; 0.1% PS20 stock (compound 1 mg/ml), dilution 10^3): 23332 cpm | 3H-TdR uptake ([4]; 0.1% PS20 stock (compound 1 mg/ml), dilution 10^4): 26249 cpm | 3H-TdR uptake ([4]; 0.1% PS20 stock (compound 1 mg/ml), dilution 10^5): 23653 cpm | 3H-TdR uptake ([4]; 10% PS20 stock (compound 1 mg/ml), dilution 10^2): 119 cpm | 3H-TdR uptake ([4]; 10% PS20 stock (compound 1 mg/ml), dilution 10^3): 18447 cpm | 3H-TdR uptake ([4]; 10% PS20 stock (compound 1 mg/ml), dilution 10^4): 24671 cpm | 3H-TdR uptake ([4]; 10% PS20 stock (compound 1 mg/ml), dilution 10^5): 21677 cpm | activity at 1 µg/mL ([2]; Mus musculus, Lymphocyte, 1 × 10^0 μg/ml, read-out: MLR activating rate (%)): 302% | activity at 0.1 µg/mL ([2]; Mus musculus, Lymphocyte, 1 × 10^-1 μg/ml, read-out: MLR activating rate (%)): 251% | activity at 0.1 µg/mL (mouse bone marrow cells; Mus musculus, Bone marrow cell, 96 h, 10^-1 μg/ml, read-out: Uptake of 3H-TdR (% of control), bone marrow cells): 214% | activity at 0.01 µg/mL (mouse bone marrow cells; Mus musculus, Bone marrow cell, 96 h, 10^-2 μg/ml, read-out: Uptake of 3H-TdR (% of control), bone marrow cells): 763% | Survival days ave. ± s. d. [3, 5]: 15.0 ± 0.7 days | response vs control in vivo at 0.1 mg/kg ([3]; Mus musculus, P388, iv, 0.1 mg/kg i.v. on days 1, 5 and 9, survival vs vehicle, read-out: T/C (%)): 117% | life-span-prolonging effect (anti-tumor effect), in words ([3]; P388 s.c. system): intensive anti-tumor effects almost in the same level as that of Compound b | activity at 1 µg/mL (mouse splenic lymphocyte; Mus musculus, Splenic lymphocyte, 48 h, 10^0 μg/ml, read-out: Uptake of 3H-TdR (% of control), splenic lymphocytes): 954%
